# Assays:
# [1] = Solubility; assay type: physicochemical; conditions: for Solubility in dioxane, toluene, benzene, chloroform: toluene (printed tolueno)
# [2] = Superoxide anion scavenging activity (method of McCord and Fridovich, xanthine/xanthine oxidase, ferricytochrome C); assay type: biochemical; conditions: for concentration dependency of superoxide anion scavenging activity: FIG. 30, FIG. 31, FIG. 32; for SOD-like activity of the detected/isolated substance: TLC-detected substance in preparation examples, test not detailed; for IC50 / superoxide anion scavenging activity (in words): pH 7.8, 25° C.; for IC50: xanthine/xanthine oxidase, ferricytochrome C, read-out: concentration of the compound which showed one unit of SOD activity (50% reduction of increase in absorbance at 550 nm); for superoxide anion scavenging activity (in words): same reaction system
# Method: The compounds according to the invention were tested for superoxide anion scavenging activity by the method of McCord and Fridovich [J. Biol. Chem., 244 (22), 6049-6055 1969) . Thus, xanthine oxidase was added to 5 ×10^-2 M potassium phosphate buffer (pH 7.8) containing 1 ×10^-4 M EDTA, 1×10^-5 M ferricytochrome C and 5×10^-5 M xanthine to give a reaction system in which the rate of increase in absorbance at 550 nm as determined at 25° C. amounted to 0.025 per minute.
# [3] = Basic, neutral or acidic nature; assay type: physicochemical
# [4] = tested on: Puromycin aminonucleoside (PAN) nephrosis rats; assay: Effect on puromycin nephritis (PAN nephrosis rats); assay type: in vivo, Male Sprague-Dawley rats; conditions: 10 mg/kg i.p. daily
# Method: Male Sprague-Dawley rats (weighing 180-200 g) were used. Puromycin aminonucleoside (PAN) nephrosis rats were prepared by single intraperitoneal administration of 50 mg/kg of PAN. Throughout the experiment, the rats were fed in metabolic cages and received a solid diet for rats and tap water ad libitum. Urine samples were collected at timed intervals for 24 hours and assayed for protein content. The test drug, suspended in a 0.5% methylcellulose solution, was intraperitoneally administered daily. After the administration period, kidneys were excised, and thin sections were prepared therefrom in the conventional manner and examined microscopically.
# [5] = Antioxidant activity (decolorization of DPPH radical); assay type: biochemical; conditions: for reduction of absorbance due to DPPH at 517 nm: 0.1 mM DPPH in ethanol, 30 minutes; for antioxidant activity of the detected/isolated substance: TLC-detected or isolated substance in preparation examples, test not detailed
# Method: Generally, substances called antioxidants can decolorize 1,1-diphenyl-2-picrylhydrazyl (DPPH), which is a stable radical.
# Thus, DPPH was dissolved in ethanol to a concentration of 0.1 mM, the test compound was admixed with the solution and, 30 minutes later, the absorbance was determined at 517 nm.
# [6] = Acute toxicity in mice; conditions: mouse, in vivo, ip
SMILES,"Solubility in dioxane, chloroform, ethyl acetate, acetonitrile [1]","Solubility in toluene, benzene, ethanol, methanol [1]","Solubility in water, hexane [1]",IC50 [2],"Basic, neutral or acidic [3]",concentration dependency of superoxide anion scavenging activity [2],SOD-like activity of the detected/isolated substance [2],"urinary protein level ([4]; PAN 50 mg/kg i.p. single, compared with PAN alone on 7th day)",kidney tissue examination (glomerular changes or abnormalities) ([4]; compared with PAN alone),superoxide anion scavenging activity (in words) [2],"Solubility in dioxane, toluene, benzene, chloroform [1]","Solubility in ethyl acetate, acetonitrile, acetone, ethanol, methanol [1]",reduction of absorbance due to DPPH at 517 nm [5],antioxidant activity of the detected/isolated substance [5],LD50 [6]
CC1=CC(C)C(OC2CCC(O)C(C)O2)C2=CC(=O)C=C(NC(=O)C(C)C(=O)C(C)C1)C2=O (stereo not drawn) [Q-1047-A],Soluble,sparingly,insoluble,5.6 µM,Neutral,dependent on the concentration,SOD-like activity,–,–,–,–,–,–,–,–
CC1=CC(C)C(OC2CCC(O)C(C)O2)C2=CC(=O)C=C(NC(=O)C(C)C(=O)C(C)C1)C2=O (stereo not drawn) [Q-1047-B],Soluble,sparingly,insoluble,35 µM,Neutral,dependent on the concentration,SOD-like activity,–,–,–,–,–,–,–,–
CC1=CC(C)C(O)C2=CC(=O)C=C(NC(=O)C(C)C(=O)C(C)C1)C2=O (stereo not drawn) [Q-1047H-A-A],Soluble,sparingly,insoluble,25 µM,Neutral,concentration-dependent,SOD-like activity,almost no increase in urinary protein was observed,such changes or abnormalities were lesser in extent and lower in incidence,have superoxide anion scavenging activity,–,–,–,–,–
CC1=CC(C)C(OC2CCC(O)C(C)O2)c2cc(O)cc(c2O)NC(=O)C(C)C(=O)C(C)C1 (stereo not drawn) [Q-1047R-A],–,–,insoluble,–,Neutral,–,–,–,–,–,sparingly,Soluble,reduced the absorbance due to DPPH,antioxidant activity,> 500 mg/kg

# Second part, led by results:
"Solubility in dioxane, chloroform, ethyl acetate, acetonitrile [1]","Solubility in toluene, benzene, ethanol, methanol [1]","Solubility in water, hexane [1]",IC50 [2],"Basic, neutral or acidic [3]",SMILES,concentration dependency of superoxide anion scavenging activity [2],SOD-like activity of the detected/isolated substance [2],"urinary protein level ([4]; PAN 50 mg/kg i.p. single, compared with PAN alone on 7th day)",kidney tissue examination (glomerular changes or abnormalities) ([4]; compared with PAN alone),superoxide anion scavenging activity (in words) [2],"Solubility in dioxane, toluene, benzene, chloroform [1]","Solubility in ethyl acetate, acetonitrile, acetone, ethanol, methanol [1]",reduction of absorbance due to DPPH at 517 nm [5],antioxidant activity of the detected/isolated substance [5],LD50 [6]
Soluble,sparingly,insoluble,22 µM,Neutral,CC1=CC(C)C(O)C2=CC(=O)C=C(NC(=O)C(C)C(=O)C(C)C1)C2=O (stereo not drawn) [Q-1047H-A-B],concentration-dependent,SOD-like activity,–,–,have superoxide anion scavenging activity,–,–,–,–,–
–,–,insoluble,–,Neutral,CC1=CC(C)C(O)c2cc(O)cc(c2O)NC(=O)C(C)C(=O)C(C)C1 (stereo not drawn) [Q-1047H-R-A],–,–,–,–,–,sparingly,Soluble,reduced the absorbance due to DPPH,antioxidant activity,–
